According to patent US8691528B2, “Cell penetrating peptide” (Mitsubishi Tanabe Pharma Corporation, priority 2005, dated 2014):
“Also recorded” adds a separate entry of the source.

Assays:
Type in all cases: cell-based
[1] = tested on: CHO cells, HeLa cells, and Jurkat cells; assay: Confocal microscopic analysis of intracellular translocation of fluorescence-labeled peptides; conditions: for intracellular translocation compared with KSH2: FITC-labeled peptide; for capability of intracellular translocation compared with KSH2: FITC-labeled peptides in CHO, HeLa, and Jurkat cells
Source text: With the PTD derived from HIV TAT protein shown by SEQ ID NO:50 in the sequence listing as the positive control (in FIG. 1 to FIG. 3, denoted by “Positive” or “TAT”), and a mutant of the TAT-derived PTD shown by SEQ ID NO:51 in the sequence listing, reported by Ulo Langel et al. (Cell-Penetrating Peptides: Processes and Applications, Series: Pharmacology and Toxicology: Basic and Clinical Aspects Volume:3, 2002), as the negative control (in FIG. 1, denoted by “Negative”), the peptides of the 11 sequences selected in Example 1-1 were evaluated.
The peptides of the 11 sequences selected in Example 1-1 were synthesized by the solid phase method, and fluorescently labeled by coupling 5,6-Carboxyfluorescein to the N-terminus of each peptide. Furthermore, the peptides were purified by HPLC to obtain a purity of 70% or more. Subsequently, each fluorescently labeled peptide was dissolved in 10% Dimethyl Sulfoxide (DMSO) to obtain 1 mM (hereinafter referred to as peptide solution).
(§1) Three kinds of cells were used for incorporating the peptides: CHO cells (ATCC NO. CCL-61), HeLa cells, and Jurkat cells. 10^4 CHO cells and HeLa cells and 10^5 Jurkat cells were separately inoculated to a 96-well plate, and cultured for 2 or 3 days. Subsequently, when the cells became confluent, each peptide solution was added to each type of cell, and the cells were incubated for 1 hour. After each type of cell was washed with PBS three times, 100 μL of 0.25% trypsin-1 mM EDTA solution was added, and trypsinization was performed at room temperature for 5 minutes. After 400 μL of PBS (10% FCS) was added to neutralize the trypsin, the cells were washed with 1 mL of HBSS (Hanks' Balanced Salt Solution/produced by Invitrogen) three times. After the washing, the cells were suspended in 50 μL of HBSS and analyzed using a confocal microscope. Measurements and analysis were performed using a confocal differential interference laser microscope system (Bio-Rad, Radience2100/Green He-Ne, 488 nm, microscope: Nikon, ECLIPSE E600).
Of the novel PTD sequences found in Example 5, the KSH2 peptide is highly capable of translocating eGFP into cells; an attempt was made to modify the KSH2 peptide. The KSH2-1 to KSH2-4 peptides (SEQ ID NOS:44 to 47 in the sequence listing) were synthesized, fluorescently labeled, purified and dissolved in the same manner as Example 1-2, a test of translocation into CHO cells was performed, and confocal microscopic analysis was performed.
First, two cases were examined: two cysteines were substituted with alanine (KSH2-1) or with tryptophan (KSH2-2). FITC-labeled peptides were synthesized, and their intracellular translocation efficiencies were examined using CHO, HeLa, and Jurkat cells (FIG. 21, the peptide addition concentration was 50 μM, 25 μM or 12.5 μM).

Jurkat cells = assay: Confocal microscopic analysis of intracellular translocation of synthetic peptides in Jurkat cells
Description: as §1
In Jurkat cells as well, intracellular translocation experiments of synthetic peptides of modified PTD sequences were performed by confocal microscopic analysis.

CHO cells = assay: Test of translocation of fluorescence-labeled peptides into CHO cells (FACS and confocal microscopic analysis); conditions: for contribution of the alanine-substituted amino acid to the intracellular translocation: comprehensive alanine substitution on the basis of KSH1-1
Description: Each peptide solution, adjusted to 1 mM, was diluted with a medium to three levels, 100 μM, 50 μM, and 25 μM, and added to cells. Three kinds of cells were used: CHO cells, HeLa cells, and Jurkat cells. After each peptide solution was added, the cells were incubated for 1 hour. After the cells were washed with PBS three times, 100 μL of 0.25% trypsin-1 mM EDTA solution was added, and trypsinization was performed at room temperature for 5 minutes. After 400 μL of PBS (10% FCS) was added to stop the trypsinization, the cells were washed with 1 mL of HBSS three times. After the washing, the cells were suspended in 500 μL of PBS (10% FCS) and subjected to flowcytometry (hereinafter, FACS) analysis using FACS Calibur (Becton Dickinson).
Each peptide was synthesized, fluorescently labeled, purified and dissolved in the same manner as Example 1-2, a test of translocation into CHO cells was performed, and an evaluation was performed by confocal microscopic analysis and FACS. FACS analysis was performed in the same manner as Example 1-3. For the KSH1 peptide and modified PTD sequences, i.e., KSH1-1 to KSH1-9 peptides (SEQ ID NOS:1 to 9 in the sequence listing), fluorescence intensities determined by FACS analysis are shown in FIG. 6. The peptide addition concentrations were 50 μM, 25 μM, 12.5 μM and 6.5 μM.
To determine which amino acids are important to the intracellular translocation, comprehensive alanine substitution was performed on the basis of KSH1-1 to design KSH1-11 (SEQ ID NO:11 in the sequence listing) to KSH1-23 (SEQ ID NO:22 in the sequence listing) and KSH1-35 (SEQ ID NO:32 in the sequence listing) (FIG. 7). Each peptide was synthesized, fluorescently labeled, purified and dissolved in the same manner as Example 1-2, a test of translocation into CHO cells was performed, and an evaluation was performed by confocal microscopic analysis and FACS. FACS analysis was performed in the same manner as Example 1-3. For KSH1 and modified PTD sequences, i.e., KSH11-11 to 23 and KSH1-35, fluorescence intensities determined by FACS analysis are shown in FIG. 8. The peptide addition concentrations were 50 μM, 25 μM, 12.5 μM and 6.5 μM.
(§2) Each peptide was synthesized, fluorescently labeled, purified and dissolved in the same manner as Example 1-2, a test of translocation into CHO cells was performed, and an evaluation was performed by confocal microscopic analysis and FACS analysis. FACS analysis was performed in the same manner as Example 1-3. For KSH1 and modified PTD sequences, i.e., KSH11-24 to 1-26 and KSH1-28 to 1-30, fluorescence intensities determined by FACS analysis are shown in FIG. 10. The peptide addition concentrations were 50 μM, 25 μM, 12.5 μM and 6.5 μM.
as §2, with “KSH1-27, KSH1-33, KSH1-34” for “KSH11-24 to 1-26”, “KSH1-36,” for “KSH1-28 to 1-30,”, “12.” for “10.”
Each peptide was synthesized, fluorescently labeled, purified and dissolved in the same manner as Example 1-2, and an intracellular translocation test in CHO cells was performed by FACS analysis. Used for positive control were a PTD sequence derived from HIV TAT ([…] in the sequence listing) and the KSH1 peptide; used for negative control was a peptide sequence lacking intracellular transferability (SEQ ID NO:57 in the sequence listing).

HeLa cells = assay: Confocal microscopic analysis of intracellular translocation of synthetic peptides in HeLa cells; conditions: confocal microscopic analysis
Description: as §1
In HeLa cells as with CHO cells, intracellular translocation experiments of synthetic peptides of modified PTD sequences were performed by confocal microscopic analysis.

[2] = 50 μM, 25 μM, 12.5 μM and 6.5 μM

| Substance | intracellular translocation in Jurkat cells as compared to that of SEQ ID NO:37 (Jurkat cells) | intracellular translocation compared with KSH1 (in words) (CHO cells; [2]) | intracellular translocation in HeLa cells (modified peptides with better translocation) (HeLa cells) | further results |
| --- | --- | --- | --- | --- |
| KSH2-2: KSH2 with two cysteines substituted with tryptophan (WKWRRQWFRVLHHWN; Designed peptide to act as PTD(Protein Transduction Domain)) |  |  |  | intracellular translocation compared with KSH2 ([1]; 12.5 μM): higher intracellular translocation efficiency than KSH2; intracellular translocation compared with KSH2 ([1]; 25 μM): higher intracellular translocation efficiency than KSH2; intracellular translocation compared with KSH2 ([1]; 50 μM): higher intracellular translocation than KSH2 |
| KSH2-4: KSH2 with one of the two cysteines substituted with alanine (WKCRRQAFRVLHHWN; Designed peptide to act as PTD(Protein Transduction Domain)) |  |  |  | capability of intracellular translocation compared with KSH2 [1]: accentuated |
| KSH1-14: alanine substitution form of KSH1-1 (RLWARWYSPTTRRYG; Designed peptide to act as PTD(Protein Transduction Domain)) | better intracellular translocation |  |  | contribution of the alanine-substituted amino acid to the intracellular translocation (CHO cells): minor contribution |
| KSH1-33: 13th arginine substituted with alanine and 10th threonine substituted with arginine (RLWMRWYSPRTRAYG; Designed peptide to act as PTD(Protein Transduction Domain)) | better intracellular translocation | clearly accentuated intracellular translocation | better intracellular translocation | intracellular translocation compared with KSH1-1 (in words) (CHO cells; [2]): nearly equivalent or more than KSH1-1 |
| KSH2-3: KSH2 with one of the two cysteines substituted with alanine (WKARRQCFRVLHHWN; Designed peptide to act as PTD(Protein Transduction Domain)) |  |  |  | capability of intracellular translocation compared with KSH2 [1]: accentuated |
| KSH1-12: alanine substitution form of KSH1-1 (RAWMRWYSPTTRRYG; Designed peptide to act as PTD(Protein Transduction Domain)) | better intracellular translocation |  |  | contribution of the alanine-substituted amino acid to the intracellular translocation (CHO cells): minor contribution |
| KSH1-18: alanine substitution form of KSH1-1 (8th serine) (RLWMRWYAPTTRRYG; Designed peptide to act as PTD(Protein Transduction Domain)) | better intracellular translocation | clearly accentuated intracellular translocation | better intracellular translocation |  |
| KSH1-21: alanine substitution form of KSH1-1 (RLWMRWYSPTARRYG; Designed peptide to act as PTD(Protein Transduction Domain)) | better intracellular translocation |  |  |  |
| KSH1-9: modified KSH1 with the number of tryptophans increased to 4 (RLWMRWYSPWTRRWG; Designed peptide to act as PTD(Protein Transduction Domain)) | better intracellular translocation | the same tendency as KSH1-8; also recorded: clearly accentuated intracellular translocation | better intracellular translocation |  |
| KSH2-1: KSH2 with two cysteines substituted with alanine (WKARRQAFRVLHHWN; Designed peptide to act as PTD(Protein Transduction Domain)) |  |  |  | intracellular translocation compared with KSH2 ([1]; 25 μM): remarkably decreased intracellular translocation; intracellular translocation compared with KSH2 ([1]; 50 μM): higher intracellular translocation than KSH2 |
| KSH1-8: tryptophan cluster form with lysine substituted with arginine (RLWMRWYSPWTRRYG; Designed peptide to act as PTD(Protein Transduction Domain)) | better intracellular translocation | clearly accentuated intracellular translocation | better intracellular translocation | intracellular translocation (in words) (CHO cells; at 25 μM or less): accentuated; intracellular translocation (in words) (CHO cells; at 50 μM): decreased |
| KSH1-16: alanine substitution form of KSH1-1 (RLWMRAYSPTTRRYG; Designed peptide to act as PTD(Protein Transduction Domain)) |  |  |  | intracellular translocation in HeLa cells compared with CHO cells (HeLa cells): slightly higher |
| KSH1-20: alanine substitution form of KSH1-1 (RLWMRWYSPATRRYG; Designed peptide to act as PTD(Protein Transduction Domain)) | better intracellular translocation |  | better intracellular translocation | contribution of the alanine-substituted amino acid to the intracellular translocation (CHO cells): minor contribution |
